In patent US20040097549A1, “Method and composition for administering a cyclooxygenase-2 inhibitor” (Pharmacia Corporation, priority 1999, published 2004):

Legend:
[1] = Treatment of a dog with arthritic-related symptoms (Example 7); type: in vivo; settings: 15-year old dog about 25 kg, commercially-available drug therapy for nine months; some worsening noted
Procedure: A 15-year old, black Labrador Retriever, mixed-heritage, neutered-male dog weighing about 25 kg has a history of arthritic-related symptoms that makes it difficult, or impossible, for the dog to stand, walk, or ascend or descend stairs. […] Over a subsequent period of six months, this dog is treated with a cyclooxygenase-2 inhibitor in the manner described as follows.
About 125 mg of a 95% pure, selective cyclooxygenase-2 inhibitor in white crystalline powder form is dispersed in a teaspoon of olive oil which is then spread over the surface of a single slice of commercially-available wheat bread. The bread is cut into quarters, all of which is then fed to the dog. The dog is observed to consume the entire slice of bread. Within ten (10) days of initial feeding of this dog, as described above, there is observed noticeable improvement in alleviation of arthritic-related symptoms. For example, the dog is observed to walk easily, descend stairs, […], and be less lethargic in day-to-day activities.

[2] = Cynomolgus monkeys, orally for six weeks; cited from earlier work

Structure (SMILES)	improvement in the dog's arthritic-related symptoms [1]	Toxicity [2]
CC(C(=O)O)c1ccc2c(c1)[nH]c1ccc(Cl)cc12 (centres unmarked) [Rimadyl carprofan]	without improvement	
CN1C(C(=O)Nc2ccccn2)=C(O)c2sc(Cl)cc2S1(=O)=O [lomoxicam]		monkeys: 1-2 mg/kg/day
